{
  "source": "patent US11986482B2",
  "about": "“Method of promoting antitumor or anti-cancer immunity” (City University of Hong Kong, priority 2021, dated 2024)",
  "key": {"PD-L1 [1]": {"system": "PD-L1", "assay": "Plasma membrane PD-L1 level in 4T1 cells (flow cytometry)", "assay_type": "cell-based, mouse", "settings": "4T1 cells, GW4869 10 μM with 6J1 1 μM", "method": "(§1) The current PD-L1 and PD1 therapies apply PD-L1 or PD1 monoclonal antibodies to block the PD-L1/PD1 signaling, which results in cytotoxic T cells recognizing and killing the tumor cells. […] First, flow cytometry-based quantification of plasma membrane levels of PD-L1 in 4T1 cells treated with or without 6J1 (1 μM) for 24 h. 4T1 cells are treated with or without 6J1 (1 μM) for 24 h. The supernatant is collected, and the concentration of extracellular vesicle is determined using a Nanosight nanoparticle analyzer in FIG. 8b. The exosomes are also collected and subjected to western blot analysis of the EVs marker and PD-L1 in FIG. 8c.\nTherefore, it is possible that the increased exosomal PD-L1 secretion induced by 6J1 may still suppress the tumor-infiltrating T cell cytotoxicity in vivo, even though 6J1 reduces the cell surface expression level of PD-L1 on the tumor cells. To evaluate the role of exosomal PD-L1 in the tumor microenvironment and tumor progression in mice, inventors knock out Rab27a in 4T1 cells to inhibit the secretion of exosomes. 4T1-shNC or 4T1-shRab27A cells are treated with or without 6J1 (1 μM). The supernatant is collected, and the concentration of extracellular vesicle is determined using a Nanosight nanoparticle analyzer. […] Inventors analyze the plasma membrane levels of PD-L1 in 4T1-shNC or 4T1-shRab27A cells treated with or without 6J1 (1 μM). […] Next, control or Rab27a-knockout 4T1 cells are orthotopically transplanted into syngeneic fat pads of female Balb/c. The mice are randomly divided (n=5 per group) and treated with either buffer or 6J1 (30 mg/kg, daily) via oral gavage. […] Inventors also perform the immunostaining of CD8 and Granzyme B in the tumor sections. […] Since enhanced antitumor immunity leads to increased apoptosis in tumors, inventors assess the levels of cleaved caspase3 (CCA3), one of the markers of apoptosis, in tumor sections as well.\nFinally, inventors assess the combinatory effects of 6J1 with GW4869, an exosome secretion inhibitor, in the aforementioned orthotopic mammary carcinoma mouse models. […]"}, "4T1 cells": {"system": "4T1 cells", "assay": "Extracellular vesicle concentration, Nanosight nanoparticle analyzer, 4T1 cells", "assay_type": "cell-based, mouse", "settings": "4T1 cells, GW4869 10 μM with 6J1 1 μM", "method": "as §1\nTo assess whether the in vivo antitumor growth effect of 6J1 is related to its effect on PD-L1 in 4T1 cells, inventors knock out PD-L1 via CRISPR/Cas9 in 4T1 cells (FIG. 10a). 4T1-NC or 4T1-PD-L1 knockout cells are treated with or without 6J1 (1 μM) for 24 h. The supernatant is collected, and the concentration of extracellular vesicle is determined using a Nanosight nanoparticle analyzer. The exosomes are also collected and subjected to western blot analysis of the EVs marker and PD-L1. […] Inventors then transplant control or PD-L1-knockout 4T1 cells into the fat pad of syngeneic female Balb/c mice. The mice are randomly divided (n=5 per group) and treated with either buffer or 6J1 (30 mg/kg, daily) via oral gavage.\nTherefore, it is possible that the increased exosomal PD-L1 secretion induced by 6J1 may still suppress the tumor-infiltrating T cell cytotoxicity in vivo, even though 6J1 reduces the cell surface expression level of PD-L1 on the tumor cells. To evaluate the role of exosomal PD-L1 in the tumor microenvironment and tumor progression in mice, inventors knock out Rab27a in 4T1 cells to inhibit the secretion of exosomes. 4T1-shNC or 4T1-shRab27A cells are treated with or without 6J1 (1 μM). The supernatant is collected, and the concentration of extracellular vesicle is determined using a Nanosight nanoparticle analyzer. […] Inventors analyze the plasma membrane levels of PD-L1 in 4T1-shNC or 4T1-shRab27A cells treated with or without 6J1 (1 μM). […]"}, "PD-L1 [2]": {"system": "PD-L1", "assay": "PD-L1 internalization assay (surface anti-PD-L1 antibody labelling, Rab5 colocalization) in HeLa cells", "assay_type": "cell-based", "settings": "HeLa cells pretreated 3 h; Pitstop2 30 uM, Filipin III 5 mg/mL", "method": "Without intending to be limited by theory, it is believed that the endosomal trafficking of PD-L1, a type I membrane protein, remains poorly studied thus far. In the fixed HeLa cells stained with anti-PD-L1 antibody, HeLa cells are plated on coverslips in 24-well plates and fixed after 24 h. Cells are then co-stained with antibodies against PD-L1 and Rab5, LAMP1, CD63, Rab27A, Rab11. […] Thus, inventors speculate that PD-L1 at the cell surface may be subjected to an active endosomal trafficking process. To monitor the PD-L1's endosomal trafficking process, inventors label the PD-L1 at the cell surface in the live cells with an anti-PD-L1 antibody on ice for 1 h. They then incubate the cells with the warm medium at 37° C. for the indicated times to initiate the internalization of the PD-L1 antibody complex, followed by the immunostaining of RAB5, EEA1, LAMP1, or RAB11. […] In addition, HeLa cells are pretreated with Fillilin III (5 mg/mL) or Pistop2 (30 uM) for 3 h, then stained with the anti-PD-L1 antibody on ice for 1 h. At the indicated times after being incubated with a warm medium at 37° C., the cells are fixed and stained with an anti-Rab5 antibody. […] Furthermore, Rab5-knockout HeLa cells are transfected with CD63-mcherry and stained with the anti-PD-L1 antibody on ice for 1 h. After being incubated for 1.5 h in a warm medium at 37° C., the cells are fixed and imaged."}, "PD-L1 [3]": {"system": "PD-L1", "assay": "Western blot of PD-L1 in total cell lysates and exosomes of HeLa cells", "assay_type": "cell-based", "settings": "HeLa cells, 48 h, Bafilomycin A1 10 nM, Torin 1 100 nM; for exosomal PD-L1 level: ionomycin 1 μM, 6J1 1 μM", "method": "PD-L1 has been previously shown to be secreted outside the cell through exosomes. HeLa cells are plated on coverslips in 24-well plates and stained with the anti-PD-L1 antibody on ice for 1 h. At the indicated times after being incubated at a warm medium at 37° C., cells are fixed and stained with antibodies against CD63 or Rab27a. […] Cells are treated with or without ionomycin (1 μM) for 48 h. The supernatant is collected and subjected to western blot analysis. […] Since the amphisome, which is formed by the fusion of the autophagosome with the MVB/late endosome, has been implicated in extracellular vesicles secretion, and PD-L1 is found to be associated with LC3B during PD-L1 trafficking (FIG. 2a), inventors examine whether the autophagosome formation is involved in exosomal PD-L1 secretion. Thus, inventors knock out the expression of Rab27A, LC3B or ATG4B in HeLa cells and collect their supernatant respectively for western blot analysis.\nFurthermore, HeLa cells are treated with or without Bafilomycin A1 (10 nM), or Torin 1 (100 nM) for 48 h. The cell lysates and supernatant are collected for western blot analysis. […] In contrast, Torin1, an autophagy activator, has little effect on total and exosomal PD-L1 levels (FIG. 2g). […] On the other hand, blockage on the fusion between lysosomes and late endosomes or autophagosomes may induce PD-L1 secretion via exosomes.\nIt has previously been shown that interfering with endosomal trafficking promotes exosome secretion. Moreover, PD-L1 has been reported to be enriched in exosomes and secreted outside the cell. Thus, inventors speculate that 6J1 may induce the secretion of the PD-L1 trapped in the endosomal compartments via exosomes. To determine whether 6J1 may induce the secretion of PD-L1 via exosomes, HeLa cells are treated with or without 6J1 (1 μM) for 24 h. The supernatant is collected. Inventors purify the exosomes from the supernatant of HeLa cells by sequential centrifugation. The concentration of extracellular vesicle is determined using a Nanosight nanoparticle analyzer. And HeLa cells are treated with or without 6J1 (1 μM) for 48 h. The cell and supernatant are collected for Western Blot analysis. […] Moreover, the activity of Rab27a in HeLa cells treated with or without 6J1 (1 μM) is examined with a GST-SHD pulldown assay.\nMoreover, ATG5- or LC3-knockout HeLa cells are treated with or without 6J1 (1 μM) for 24 h. The supernatant is collected, and the concentration of the extracellular vesicle is determined using a Nanosight nanoparticle analyzer. The exosomes are also collected and subjected to western blot analysis of the EVs marker and PD-L1 in FIG. 7a. The live cells are also labeled with an anti-PD-L1 antibody in FIG. 7b and subjected to flow cytometry analysis in FIG. 7c. […] In addition, inventors assess whether other autophagy-related genes, e.g., ATG4B, ATG7, Beclin1, and Vps34 are involved in 6J1-mediated exosomal PD-L1 secretion. ATG4B-, ATG7-, Beclin1-, or VPS34-knockout HeLa cells are treated with or without 6J1 (1 μM) for 24 h. The supernatant is collected, and the concentration of extracellular vesicle is determined using a Nanosight nanoparticle analyzer. The exosomes are also collected and subjected to western blot analysis of the EVs marker and PD-L1 in FIG. 7d. The live cells are also labeled with an anti-PD-L1 antibody and subjected to flow cytometry analysis in FIG. 7e."}},
  "note": "“Also recorded” adds a separate entry of the source.",
  "data": [
    {"smiles": "O=C(C=Cc1ccc(C=CC(=O)Nc2ccc(C3=NCCN3)cc2)cc1)Nc1ccc(C2=NCCN2)cc1", "note": "[GW4869, reference compound]", "values": [
      {"measurement": "effect of GW4869 on 6J1-mediated reduction of cell surface PD-L1", "setting": "PD-L1 [1]", "result": "does not impair 6J1-mediated reduction of cell surface PD-L1"},
      {"measurement": "effect of GW4869 on 6J1-induced exosome secretion", "setting": "4T1 cells", "result": "inhibits exosome secretion of 4T1 cells induced by 6J1"}
    ]},
    {"smiles": "O=C1NC(=NS(=O)(=O)c2cccc3ccccc23)S/C1=C\\c1ccc(Br)cc1", "note": "[Pitstop2]", "values": [
      {"measurement": "internalization of PD-L1", "setting": "PD-L1 [2]", "result": "blocks the internalization of PD-L1"}
    ]},
    {"smiles": "C[C@H](CCC(=O)O)C[C@H](C)C[C@H](C)C(=O)/C=C(\\O)[C@H](C)C[C@H](C)C/C=C/[C@@H](C)[C@@H](O)[C@@H](C)[C@@H](O)C[C@@H]1CC[C@@](C)([C@H]2CC[C@@](C)([C@@H](C)O)O2)O1", "note": "[ionomycin]", "values": [
      {"measurement": "exosomal PD-L1 level", "setting": "PD-L1 [3]", "result": "markedly increases the exosomal PD-L1 level; also recorded: markedly increased exosomal PD-L1 level"}
    ]},
    {"smiles": "CCC(=O)N1CCN(c2ccc(-n3c(=O)ccc4cnc5ccc(-c6cnc7ccccc7c6)cc5c43)cc2C(F)(F)F)CC1", "note": "[Torin1]", "values": [
      {"measurement": "total PD-L1 level in cells", "setting": "PD-L1 [3]", "result": "little effect"},
      {"measurement": "exosomal PD-L1 level", "setting": "PD-L1 [3]", "result": "little effect"}
    ]},
    {"smiles": "CO/C1=C\\C(C)=C\\[C@@H](C)[C@@H](O)[C@@H](C)C/C(C)=C/C=C/[C@H](OC)[C@@H]([C@@H](C)[C@@H](O)[C@H](C)[C@@]2(O)C[C@@H](O)[C@H](C)[C@@H](C(C)C)O2)OC1=O", "note": "[bafilomycin A1]", "values": [
      {"measurement": "total PD-L1 level in cells", "setting": "PD-L1 [3]", "result": "markedly increases"},
      {"measurement": "exosomal PD-L1 level", "setting": "PD-L1 [3]", "result": "markedly increases"}
    ]},
    {"smiles": "CCCCC[C@@H](O)[C@H]1C(=O)O[C@H](C)[C@@H](O)/C=C/C=C/C=C/C=C/C=C(\\C)[C@@H](O)C[C@H](O)C[C@H](O)C[C@H](O)C[C@H](O)C[C@H](O)C[C@@H]1O", "note": "[Filipin III]", "values": [
      {"measurement": "internalization of PD-L1", "setting": "PD-L1 [2]", "result": "does not affect the internalization of PD-L1"}
    ]}
  ]
}
